Here are results for 27 compounds from US20250353835A1, “N-TETRAZOLYL ARYL UREA-BASED DERIVATIVES, PREPARATION METHOD THEREFOR, AND USE THEREOF” (Hangzhou Yirui Pharmaceutical Technology Co., Ltd, priority 2022, published 2025).

The target in the test is T1, human B1R (Homo sapiens, UniProt P46663).
T1 construct: host or cells: HEK293
T1 sequence (P46663 1-353): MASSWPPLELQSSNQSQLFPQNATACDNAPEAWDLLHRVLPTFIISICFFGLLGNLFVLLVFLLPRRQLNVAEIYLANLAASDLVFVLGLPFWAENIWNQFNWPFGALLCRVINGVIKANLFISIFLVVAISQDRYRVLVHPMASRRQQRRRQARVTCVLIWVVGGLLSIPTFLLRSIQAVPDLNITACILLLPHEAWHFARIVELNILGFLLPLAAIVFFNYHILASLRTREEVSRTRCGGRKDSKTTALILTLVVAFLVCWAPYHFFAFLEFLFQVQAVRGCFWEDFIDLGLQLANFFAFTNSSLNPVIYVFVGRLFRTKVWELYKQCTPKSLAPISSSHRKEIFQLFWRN
Description: FLIPR calcium ion flux assay, inhibitory activity against human B1R. The test is classed as cell-based. Conditions: HEK293 cells stably expressing human B1R; agonist [Lys-des-Arg9]-Bradykinin 4.6 nM (EC80); FLIPR method. The protocol:
The inhibitory activity of the compounds against human B1R and B2R channels was determined by calcium ion flux assay using fluorometric imaging plate reader (FLIPR method). See literatures of Lee, Chen et al. for the method. [Lee et al. 2008][Chen et al. 2011]
1. Cell culture: HEK293 recombinant cell lines (WuXi AppTec, Shanghai, China) stably expressing human B1R and B2R were cultured in DMEM (Invitrogen, Cat #11965) medium containing 10% calf serum (Excellbio, Cat #FSP500), 5 μg/ml Geneticin (Invitrogen, Cat #10131) and Penicillin/Streptomycin (Invitrogen, Cat #15140). The incubator conditions were 37° C. and ambient humidity containing 5% CO2.
2. Preparation of the cell assay plate: B1R and B2R cells were seeded in a 384-well assay plate (Greiner, Cat #781090) at a density of 20,000 cells per well (20 μl/well), and cultured overnight at 37° C. in an incubator with 5% CO2. The next day, Fluo-4 Direct™ Loading Buffer (containing 5 mM Probenicid) containing 2× (8 μM) Fluo-4 Direct (Invitrogen, Cat #F10471) was added to each of the wells. The cells were cultured at 37° C. for 50 min, and then culture for at the room temperature 10 min.
3. Preparation of the compound assay plate: The compound was dissolved in 100% DMSO to make a 30 mM stock solution and stored at −20° C. On the day of use, the stock solution of the compound was thawed at the room temperature. Each of the compounds was serially diluted at 1:5 in DMSO culture medium with a starting concentration of 30 μM for 9 concentration points on a 384-well plate. Each of compounds was diluted in duplicate for testing. [Des-Arg10]-HOE140 was used as a positive control compound, and diluted in the same manner with a starting concentration of 3 μM.
4. FLIPR assay: The cell assay plate was placed in a FLIPR instrument ([…]). The compounds in the compound assay plate were added to the corresponding wells on the cell assay plate (10 μL/well) using an automatic program. The calcium ion fluorescence signal was recorded to determine whether the compound may have agonist activity. After 10 minutes, a B1R agonist [Lys-des-Arg9]-Bradykinin2 (10 μL/well) with a final concentration of 4.6 nM (EC80) was added to each of the wells to stimulate the generation of intracellular calcium ion flux signals. The Ca^++-dependent fluorescence signal was continuously monitored at a wavelength of 538 nm to analyze the inhibitory activity of the compound.
5. Data analysis: The data was collected and analyzed by a FLIPR program. The inhibitory (or agonist) activity of the compound at each concentration was evaluated by the fluorescence peak. The IC50 values of the compounds were calculated using EXCEL and PRISM programs.

For `COc1ccc(-c2ccc(NC(=O)Nc3ccc(C(F)(F)F)cc3)cc2-c2nn[nH]n2)cc1OC` [Compound 60, 1-(3′,4′-dimethoxy-2-(2H-tetrazol-5-yl)-[1,1′-biphenyl]-4-yl)-3-(4-(trifluoromethyl)phenyl)urea], the 50% inhibitory concentration (IC50) was determined as 247 nM.

`CCOc1ccc(-c2c(F)cc(NC(=O)N3CCC(C)CC3)cc2-c2nn[nH]n2)cn1` [Compound 31, N-(4-(6-ethoxypyrid-3-yl)-3-fluoro-5-(2H-tetrazol-5-yl)phenyl)-4-methylpiperidine-1-carboxamide]: the IC50 turned out to be 19.2 nM.

Take `CC(C)(C)c1cn(-c2c(F)cc(NC(=O)N3CCC(C(C)(C)C)CC3)cc2-c2nn[nH]n2)cn1` [Compound 57, 4-(tert-butyl)-N-(4-(4-(tert-butyl)-1H-imidazol-1-yl)-3-fluoro-5-(2H-tetrazol-5-yl)phenyl)piperidine-1-carboxamide]: the IC50 came to 8.1 nM.

In the case of `CCOC(=O)c1ccc(NC(=O)N2CCC(C(C)(C)C)CC2)cc1-c1nn[nH]n1` [Compound 45, ethyl 4-(4-(tert-butyl)piperidine-1-formamido)-2-(2H-tetrazol-5-yl)benzoate], the IC50 was determined as 103 nM.

Turning to `CC(C)(C)C1CCN(C(=O)Nc2cc(F)c(C(=O)OC3CCCCC3)c(-c3nn[nH]n3)c2)CC1` [Compound 17, cyclohexyl 4-(4-(tert-butyl)piperidine-1-formamido)-2-fluoro-6-(2H-tetrazol-5-yl)benzoate], the half-maximal inhibitory concentration (IC50) was 29.6 nM.

With `COc1ccc(-c2c(F)cc(NC(=O)N3CCC(C(F)(F)F)CC3)cc2-c2nn[nH]n2)cc1OC` [Compound 26, N-(2-fluoro-3′,4′-dimethoxy-6-(2H-tetrazol-5-yl)-[1,1′-biphenyl]-4-yl)-4-(trifluoromethyl)piperidine-1-carboxamide], the IC50 was 54.4 nM.

With `Cn1ncc2cc(-c3c(F)cc(NC(=O)N4CCC(C(F)(F)F)CC4)cc3-c3nn[nH]n3)ccc21` [Compound 34, N-(3-fluoro-4-(1-methyl-1H-indazol-5-yl)-5-(2H-tetrazol-5-yl)phenyl)-4-(trifluoromethyl)piperidine-1-carboxamide], the IC50 came to 21.4 nM.

As for `CC(C)(C)C1CCN(C(=O)Nc2ccc(C(=O)OC3CCOC3)c(-c3nn[nH]n3)c2)CC1` (stereo not drawn) [Compound 44, tetrahydrofuran-3-yl 4-(4-(tert-butyl)piperidine-1-formamido)-2-(2H-tetrazol-5-yl)benzoate], the IC50 was 106 nM.

Take `CC(C)(C)C1CCN(C(=O)Nc2ccc(C(=O)OC3CCCCC3)c(-c3nn[nH]n3)c2)CC1` [Compound 15, cyclohexyl 4-(4-(tert-butyl)piperidine-1-formamido)-2-(2H-tetrazol-5-yl)benzoate]: the IC50 is 39.8 nM.

`CC(C)Oc1ccc(-c2c(F)cc(NC(=O)N3CCC(C(C)(C)C)CC3)cc2-c2nn[nH]n2)cn1` [Compound 56, 4-(tert-butyl)-N-(3-fluoro-4-(6-isopropoxypyrid-3-yl)-5-(2H-tetrazol-5-yl)phenyl)piperidine-1-carboxamide]: the IC50 amounted to 7.6 nM.

For `CC(C)(C)C1CCN(C(=O)Nc2cc(F)c(-c3ccc(C(F)(F)F)nc3)c(-c3nn[nH]n3)c2)CC1` [Compound 18, 4-(tert-butyl)-N-(3-fluoro-5-(2H-tetrazol-5-yl)-4-(6-(trifluoromethyl)pyrid-3-yl)phenyl)piperidine-1-carboxamide], the IC50 is 9.9 nM.

Turning to `COc1ccc(-c2ccc(NC(=O)NC3CCC(C(C)(C)C)CC3)cc2-c2nn[nH]n2)cc1OC` (stereo not drawn) [Compound 59, 1-(4-(tert-butyl)cyclohexyl)-3-(3′,4′-dimethoxy-2-(2H-tetrazol-5-yl)-[1,1′-biphenyl]-4-yl)urea], the IC50 came out at 35.4 nM.

Take `COc1ccc(-c2ccc(NC(=O)N3CCC4CCOC4C3)cc2-c2nn[nH]n2)cc1OC` (stereo not drawn) [Compound 4, N-(3′,4′-dimethoxy-2-(2H-tetrazol-5-yl)-[1,1′-biphenyl]-4-yl)hexahydrofuro[2,3-c]pyridine-6(2H)-carboxamide]: the concentration for half-maximal inhibition (IC50) was determined as 5320 nM.

As to `C[C@H]1CC[C@@H](NC(=O)Nc2ccc(OC3CCOCC3)c(-c3nn[nH]n3)c2)CC1` [Compound 72], the IC50 came to 12000 nM.

As to `COc1ccc(-c2ccc(NC(=O)N3CCC(C(C)(C)C)CC3)cc2-c2nn[nH]n2)cc1OC` [Compound 1, 4-(tert-butyl)-N-(3′,4′-dimethoxy-2-(2H-tetrazol-5-yl)-[1,1′-biphenyl]-4-yl)piperidine-1-carboxamide], the concentration for half-maximal inhibition (IC50) is 40 nM.

For `CCOC(=O)c1ccc(NC(=O)N2CCC(C(C)(C)C)CC2)cc1-c1nn[nH]n1` [Compound 16, ethyl 4-(4-(tert-butyl)piperidine-1-formamido)-2-(2H-tetrazol-5-yl)benzoate], the IC50 worked out at 28.2 nM.

Turning to `CC(C)(C)c1cn(-c2ccc(NC(=O)N3CCC(C(C)(C)C)CC3)cc2-c2nn[nH]n2)cn1` [Compound 58, 4-(tert-butyl)-N-(4-(4-(tert-butyl)-1H-imidazol-1-yl)-3-(2H-tetrazol-5-yl)phenyl)piperidine-1-carboxamide], the concentration for half-maximal inhibition (IC50) was found to be 8.6 nM.

For the compound `C[C@H]1CC[C@H](NC(=O)Nc2ccc(OC3CCOCC3)c(-c3nn[nH]n3)c2)CC1` [Compound 73], the IC50 amounted to 13700 nM.

With `CCOC(=O)c1ncc(NC(=O)N2CCC(C(C)(C)C)CC2)cc1-c1nn[nH]n1` [Compound 37, ethyl 5-(4-(tert-butyl)piperidine-1-formamido)-3-(2H-tetrazol-5-yl)pyridylcarboxylate], the IC50 came out at 72.7 nM.

Regarding `COc1ccc(-c2c(F)cc(NC(=O)N3CCC(C(C)(C)C)CC3)cc2-c2nn[nH]n2)cc1Cl` [Compound 33, 4-(tert-butyl)-N-(3′-chloro-2-fluoro-4′-methoxy-6-(2H-tetrazol-5-yl)-[1,1′-biphenyl]-4-yl)piperidine-1-carboxamide], the concentration for half-maximal inhibition (IC50) amounted to 14.6 nM.

As for `CC(C)(C)C1CCN(C(=O)Nc2cnc(C(=O)OC3CCCCC3)c(-c3nn[nH]n3)c2)CC1` [Compound 38, cyclohexyl 5-(4-(tert-butyl)piperidine-1-formamido)-3-(2H-tetrazol-5-yl)pyridylcarboxylate], the IC50 came out at 83.7 nM.

For the compound `COc1ccc(-c2ccc(NC(=O)N3CCC4(CCCO4)CC3)cc2-c2nn[nH]n2)cc1OC` [Compound 3, N-(3′,4′-dimethoxy-2-(2H-tetrazol-5-yl)-[1,1′-biphenyl]-4-yl)-1-oxy-8-azaspiro[4.5]decane-1-carboxamide], the IC50 was determined as 1330 nM.

Take `COc1ccc(-c2ccc(NC(=O)N3CCC(C)CC3)cc2-c2nn[nH]n2)cc1Cl` [Compound 22, N-(3′-chloro-4′-methoxy-2-(2H-tetrazol-5-yl)-[1,1′-biphenyl]-4-yl)-4-methylpiperidine-1-carboxamide]: the IC50 is 30.2 nM.

On to `CC(C)(C)C1CCN(C(=O)Nc2cc(F)c(C(=O)NC3CCCC3)c(-c3nn[nH]n3)c2)CC1` [Compound 53, 4-(tert-butyl)-N-(4-(cyclopentylaminoformyl)-3-fluoro-5-(2H-tetrazol-5-yl)phenyl)piperidine-1-carboxamide], for which the IC50 turned out to be 48.1 nM.

With `COc1cncc(-c2ccc(NC(=O)N3CCC(C(C)(C)C)CC3)cc2-c2nn[nH]n2)c1` [Compound 48, 4-(tert-butyl)-N-(4-(5-methoxypyrid-3-yl)-3-(2H-tetrazol-5-yl)phenyl)piperidine-1-carboxamide], the IC50 was determined as 372 nM.

For `COc1ccc(-c2ccc(NC(=O)N3CCC(C)(C)CC3)cc2-c2nn[nH]n2)cc1OC` [Compound 12, N-(3′,4′-dimethoxy-2-(2H-tetrazol-5-yl)-[1,1′-biphenyl]-4-yl)-4,4-dimethylpiperidine-1-carboxamide], the IC50 came out at 148 nM.

For the compound `COc1ccc(-c2ccc(NC(=O)N3CCC(C(C)(C)C)CC3)cc2-c2nn[nH]n2)cc1C` [Compound 13, 4-(tert-butyl)-N-(4′-methoxy-3′-methyl-2-(2H-tetrazol-5-yl)-[1,1′-biphenyl]-4-yl)piperidine-1-carboxamide], the IC50 came to 26.2 nM.
